Patent US20150201661A1, “BAMBOO EXTRACTS, COMPOSITIONS AND USES THEREOF” (priority 2014, published 2015)
Marks after values point to notes of the source that are not given here.

Legend:
Type in all cases: in vivo, Pseudosciaena crocea
[1] = Body weight and fat content of large yellow croaker; conditions: 5 months, feed with GBE 3.0 g/kg or astaxanthin 1.0 g/kg
Description: (§1) Yellow croaker fish (Pseudosciaena crocea) are an important marine economic fish in China. One thousand and eight hundred of large yellow croakers with the average weight of 150.06±11.35 g, were randomly selected into three groups (each group represented by three replicates of 200 large yellow croakers each). The GBE group and astaxanthin group were feed with complete formula puffed pellet feed rich in 3.0 g/kg of GBE and 1.0 g/kg of astaxanthin, respectively. Astaxanthin is an accepted dietary additive, but is quite expensive. The reference group was feed with chilled miscellaneous fish and shrimp. The breeding time was five months. Feeding was stopped 24 h after the test. Eight test large yellow croakers were randomly selected from each replicate group (that is, 24 test large yellow croakers each group). The selected fish were weighed, the livers were segmented, and the abdominal and back muscles examined after they were killed. Adequate amount of fresh back and abdominal muscle were used for sensory evaluation, the rest were sub-packaged and stored on −20° C. refrigerator for further use. The fat content of liver and fish and the superoxide dismutase (SOD) activity, catalase (CAT) activity, malondialdehyde (MDA) content, leptin content, adiponectin content of liver were detected.

malondialdehyde (MDA) = assay: MDA content (lipid peroxidation) in liver of large yellow croaker; conditions: 5 months, feed with GBE 3.0 g/kg or astaxanthin 1.0 g/kg
Description: as §1

adiponectin = assay: Adiponectin level in the liver of large yellow croaker; conditions: 5 months, feed with GBE 3.0 g/kg or astaxanthin 1.0 g/kg
Description: as §1

back muscle tissue = assay: Transmission electron microscopy of back muscle of large yellow croakers; conditions: FIG. 4
Description: as §1

leptin = assay: Leptin level in the liver of large yellow croaker; conditions: 5 months, feed with GBE 3.0 g/kg or astaxanthin 1.0 g/kg
Description: as §1

catalase (CAT) = assay: CAT activity in liver of large yellow croaker; conditions: 5 months, feed with GBE 3.0 g/kg or astaxanthin 1.0 g/kg
Description: as §1

[2] = test system: superoxide dismutase (SOD); assay: SOD activity in liver of large yellow croaker; conditions: 5 months, feed with GBE 3.0 g/kg or astaxanthin 1.0 g/kg
Description: as §1

SMILES: CC1=C(/C=C/C(C)=C/C=C/C(C)=C/C=C/C=C(C)/C=C/C=C(C)/C=C/C2=C(C)C(=O)[C@@H](O)CC2(C)C)C(C)(C)C[C@H](O)C1=O [ASTA, astaxanthin]
- overall body weight vs reference group ([1]; FIG. 3): no significant differences
- fat content of liver vs reference group ([1]; p<0.05): significantly lower
- fat content of muscle vs reference group ([1]; p<0.05): significantly lower
- MDA level in the liver (malondialdehyde (MDA)): 118 ± 9.33 nmol/mg prot
- ADIPONECTIN level in the liver (adiponectin): 2.57 ± 0.33^c ug/mL
- clearance of muscle bundle, order of groups (back muscle tissue; TEM 10000 times): reference group<GBE group<astaxanthin group
- quantity of mitochondria, order of groups (back muscle tissue; TEM 12000 times): reference group<GBE group<astaxanthin group
- LEPTIN level in the liver (leptin): 1.08 ± 0.12^b ng/mL
- CAT activity in the liver (catalase (CAT)): 22.56 ± 3.11^a U/mg prot
- CAT/SOD ratio in the liver (catalase (CAT)): 0.13 ± 0.01^a
- SOD activity in the liver [2]: 157.35 ± 10.24^a U/mg prot
